Experimental data published in patent publication US4103011A, “Novel penicillin compounds and process for preparation thereof” (priority 1976, dated 1978).
Where a name gives a salt, the structure may show the parent alone. Read-outs that look alike come from different tables or passages of the source.

What was measured:
[1] = in vivo; settings: mouse
[2] = tested on: Pseudomonas aeruginosa No. 12; assay: In vivo efficacy against systemic infection; set-up: species or system male mice (ddY); settings: NO.12, in Mus musculus, twice, about 5 minutes and 6 hours after infection, read-out: ED50 (median effective dose)
Description: (§1) The contents in the vials (No. A and No. C) prepared in Example 17 were each dissolved in deionized water, and injections having various concentrations were prepared.
(§2) Compounds A, B, F, G, H and M were dissolved in deionized water.
(§3) Mice: male mice (ddY) weighting about 20g
Pseudomonas aeruginosa No. 12;
(§4) Intraperitoneal infection with 50 to
(§5) of a bacterial suspension in tryptosoy
(§6) twice, about 5 minutes and 6 hours after
Pseudomonas aeruginosa No. 12
(§7) calculated in accordance with the Behrens-Kaerber method [Arch. Exp. Path

[3] = tested on: Proteus rettgeri P-2503; assay: In vitro antibacterial activity (MIC); assay type: cell-based; settings: Providencia rettgeri
Source text: (§8) In vitro antibacterial activity against 20 strains of bacteria
(§9) The numerals in the table show minimum inhibitory concentrations (MIC)

[4] = tested on: Staphylococcus aureus No. 50774; assay: In vitro antibacterial activity (MIC); assay type: cell-based; settings: Staphylococcus aureus No. 50774; read-out: minimum inhibitory concentration (MIC)
Source text: as §8, §9

[5] = tested on: Klebsiella pneumoniae No. 13; assay: In vitro antibacterial activity (MIC); assay type: cell-based; settings: Klebsiella pneumoniae No. 13; read-out: minimum inhibitory concentration (MIC)
Source text: as §8, §9

[6] = tested on: Streptococcus faecalis P-2473; assay: In vitro antibacterial activity (MIC); assay type: cell-based; settings: Enterococcus faecalis
Source text: as §8, §9

[7] = tested on: Serratia mercescens IFO 3736; assay: In vitro antibacterial activity (MIC); assay type: cell-based
Source text: as §8, §9

[8] = tested on: Enterobacter cloacae P-2540; assay: In vitro antibacterial activity (MIC); assay type: cell-based
Source text: as §8, §9

[9] = tested on: Pseudomonas aeruginosa No.12; assay: In vitro antibacterial activity (MIC); assay type: cell-based
Source text: as §8, §9

[10] = tested on: Salmonella typhimurium S-9; assay: In vitro antibacterial activity (MIC); assay type: cell-based; settings: Salmonella enterica; Salmonella typhimurium S-9; read-out: minimum inhibitory concentration (MIC)
Source text: as §8, §9

[11] = tested on: Escherichia coli NIHJ JC-2; assay: In vitro antibacterial activity (MIC); assay type: cell-based
Source text: as §8, §9

[12] = tested on: Shigella flexneri 4a P-330; assay: In vitro antibacterial activity (MIC); assay type: cell-based; settings: 4AP330, read-out: minimum inhibitory concentration (MIC)
Source text: as §8, §9

[13] = tested on: Corynebacterium pyogenes C-21; assay: In vitro antibacterial activity (MIC); assay type: cell-based; settings: Rhodococcus (subgen. Prescottella) equi, C21; Corynebacterium pyogenes C-21; read-out: minimum inhibitory concentration (MIC)
Source text: as §8, §9

[14] = tested on: Pseudomonas aeruginosa Tsuchijima; assay: In vitro antibacterial activity (MIC); assay type: cell-based; settings: Pseudomonas aeruginosa Tsuchijima; read-out: minimum inhibitory concentration (MIC)
Source text: as §8, §9

[15] = tested on: Staphylococcus aureus 209P JC-1; assay: In vitro antibacterial activity (MIC); assay type: cell-based; settings: Staphylococcus aureus 209P JC-1; read-out: minimum inhibitory concentration (MIC)
Source text: as §8, §9

[16] = tested on: Escherichia coli P-140a; assay: In vitro antibacterial activity (MIC); assay type: cell-based
Source text: as §8, §9

[17] = tested on: Streptococcus pyogenes 65A; assay: In vitro antibacterial activity (MIC); assay type: cell-based; settings: Streptococcus pyogenes 65A; read-out: minimum inhibitory concentration (MIC)
Source text: as §8, §9

[18] = tested on: Shigella flexneri 2a; assay: In vitro antibacterial activity (MIC); assay type: cell-based; settings: read-out: minimum inhibitory concentration (MIC)
Source text: as §8, §9

[19] = tested on: Proteus mirabilis P-2381; assay: In vitro antibacterial activity (MIC); assay type: cell-based
Source text: as §8, §9

[20] = tested on: Proteus morganii Kono; assay: In vitro antibacterial activity (MIC); assay type: cell-based; settings: Morganella morganii, read-out: minimum inhibitory concentration (MIC)
Source text: as §8, §9

[21] = tested on: Escherichia coli P-5101; assay: In vitro antibacterial activity (MIC); assay type: cell-based; settings: Escherichia coli, P5101, read-out: minimum inhibitory concentration (MIC)
Source text: as §8, §9

[22] = tested on: Salmonella enteritidis No. 1891; assay: In vitro antibacterial activity (MIC); assay type: cell-based; settings: Salmonella enterica; Salmonella enteritidis No. 1891; read-out: minimum inhibitory concentration (MIC)
Source text: as §8, §9

[23] = tested on: Staphylococcus aureus No. 50774; assay: In vivo efficacy against systemic infection; set-up: species or system male mice (ddY); settings: NO.50774, in Mus musculus, 336 h, sc, twice, about 5 minutes and 6 hours after infection, read-out: ED50 (median effective dose)
Description: as §1
(§10) Compounds A, B, F, G, H and M were dissolved in deionized water. Compounds C, D, E and J were dissolved in an aqueous solution of sodium carbonate (pH 8-9) to prepare injections of various concentrations.
(§11) Each of the injections was administered to mice under the conditions described below, and the median effective doses (ED50) obtained are shown in Table II.
as §3
Staphylococcus aureus No. 50774;
Intravenous infection with 50 to 100
LD50 (about 5 × 10^8cells/mouse) of a
bacterial suspension in saline.
as §6
Staphylococcus aureus No. 50774 14 days
The numerals in the table show ED50 (mg/kg). ED50 values were
as §7

[24] = tested on: bacteria (systemic infection); assay: In vivo efficacy against systemic infection, overall conclusions; set-up: species or system male mice (ddY); settings: Table II
Description: as §1, §10, §11

[25] = tested on: Escherichia coli P-5101; assay: In vivo efficacy against systemic infection; set-up: species or system male mice (ddY); settings: P5101, in Mus musculus, 168 h, twice, about 5 minutes and 6 hours after infection, read-out: ED50 (median effective dose)
Description: as §1, §2, §3, §4, §5, §6, §7

[26] = tested on: 20 strains of bacteria; assay: In vitro antibacterial activity, overall conclusions; assay type: cell-based
Source text: as §8

[27] = P2503, Proteus rettgeri P-2503, read-out: minimum inhibitory concentration (MIC)
[28] = IFO3736, Serratia mercescens IFO 3736, read-out: minimum inhibitory concentration (MIC)
[29] = P2540, Enterobacter cloacae P-2540, read-out: minimum inhibitory concentration (MIC)
[30] = Pseudomonas aeruginosa No.12, read-out: minimum inhibitory concentration (MIC)
[31] = NIHJJC2, Escherichia coli NIHJ JC-2, read-out: minimum inhibitory concentration (MIC)
[32] = P2381, Proteus mirabilis P-2381, read-out: minimum inhibitory concentration (MIC)
[33] = P2473, Streptococcus faecalis P-2473, read-out: minimum inhibitory concentration (MIC)
[34] = Pseudomonas aeruginosa, NO.12, read-out: minimum inhibitory concentration (MIC)
[35] = Proteus mirabilis, P2381, read-out: minimum inhibitory concentration (MIC)
[36] = Escherichia coli, NIHJJC2, read-out: minimum inhibitory concentration (MIC)

Compound	LD50 at 168 h ([1]; iv)	selectivity ratio ([1]; iv)	LD50 at 168 h ([1]; sc)	selectivity ratio ([1]; sc)	ED50 ([2]; sc)	MIC [4]	MIC [5]	MIC [10]	MIC [12]	MIC [13]	MIC [14]	MIC [15]	minimum inhibitory concentration (MIC) [16]	MIC [17]	MIC [18]	MIC [21]	MIC [22]	ED50 [23]	ED50 ([25]; iv)	ED50 ([25]; sc)	also measured
CN1CCN(c2ncc3c(=O)c(C(=O)N[C@@H](C(=O)N[C@@H]4C(=O)N5[C@@H]4SC(C)(C)[C@@H]5C(=O)O)c4ccc(O)cc4)c[nH]c3n2)CC1 [Compound A, D-α-[5,8-Dihydro-2-(4-methyl-1-piperazinyl)-5-oxopyrido[2,3-d]pyrimidine-6-carboxamido]-p-hydroxybenzylpenicillin sodium salt]	1120 mg/kg	432	1500 mg/kg	417	3.6 mg/kg	3.13 µg/mL	6.25 µg/mL	0.2 µg/mL	0.78 µg/mL	0.78 µg/mL	0.39 µg/mL	1.56 µg/mL	6.25 µg/mL	< 0.1 µg/mL	0.78 µg/mL	0.39 µg/mL	0.2 µg/mL	3.7 mg/kg	0.7 mg/kg	1 mg/kg	ED50 ([2]; iv): 2.6 mg/kg; MIC [3, 27]: 6.25 µg/mL; MIC ([6]; P2473, read-out: minimum inhibitory concentration (MIC)): 6.25 µg/mL; MIC [7, 28]: 3.13 µg/mL; MIC [8, 29]: 3.13 µg/mL; MIC [9, 30]: 1.56 µg/mL; MIC [11, 31]: 0.78 µg/mL; MIC [19, 32]: 3.13 µg/mL; MIC ([20]; Proteus morganii Kono): 3.13 µg/mL; antibacterial activity in vivo (in words) [24]: almost comparable
CNc1ncc2c(=O)c(C(=O)N[C@@H](C(=O)N[C@@H]3C(=O)N4[C@@H]3SC(C)(C)[C@@H]4C(=O)O)c3ccc(O)cc3)c[nH]c2n1 [Compound F, D-α-(5,8-Dihydro-2-methylamino-5-oxopyrido[2,3-d]pyrimidine-6-carboxamido)-p-hydroxybenzylpenicillin sodium salt]	1410 mg/kg	248	1410 mg/kg	295	4.8 mg/kg	0.39 µg/mL	25 µg/mL	1.56 µg/mL	6.25 µg/mL	0.78 µg/mL	0.78 µg/mL	0.39 µg/mL	25 µg/mL	< 0.1 µg/mL	3.13 µg/mL	3.13 µg/mL	1.56 µg/mL	~0.7 mg/kg	12 mg/kg	6.3 mg/kg	ED50 ([2]; iv): 5.7 mg/kg; MIC [3, 27]: 12.5 µg/mL; MIC [6, 33]: 1.56 µg/mL; MIC [7, 28]: 12.5 µg/mL; MIC [8, 29]: 12.5 µg/mL; MIC [9, 34]: 6.25 µg/mL; MIC [11, 31]: 12.5 µg/mL; MIC [19, 35]: 3.13 µg/mL; MIC ([20]; Proteus morganii Kono): 12.5 µg/mL; antibacterial activity in vivo (in words) [24]: almost comparable
CC1(C)S[C@@H]2[C@H](NC(=O)[C@H](NC(=O)c3c[nH]c4nc(N)ncc4c3=O)c3ccc(O)cc3)C(=O)N2[C@H]1C(=O)O [Compound G, D-α-(5,8-Dihydro-2-amino-5-oxopyrido[2,3-d]pyrimidine-6-carboxamido)-p-hydroxybenzylpenicillin sodium salt]	1000 mg/kg	256	1000 mg/kg	227	4.4 mg/kg	0.39 µg/mL	25 µg/mL	1.56 µg/mL	6.25 µg/mL	0.78 µg/mL	0.39 µg/mL	0.39 µg/mL	50 µg/mL	< 0.1 µg/mL	3.13 µg/mL	3.13 µg/mL	0.78 µg/mL	~0.8 mg/kg	8.8 mg/kg	11.5 mg/kg	ED50 ([2]; iv): 3.9 mg/kg; MIC ([3]; P2503, read-out: minimum inhibitory concentration (MIC)): 6.25 µg/mL; MIC [6, 33]: 1.56 µg/mL; MIC [7, 28]: 12.5 µg/mL; MIC ([8]; Enterobacter cloacae, P2540, read-out: minimum inhibitory concentration (MIC)): 6.25 µg/mL; MIC [9, 34]: 3.13 µg/mL; MIC [11, 36]: 6.25 µg/mL; MIC [19, 35]: 3.13 µg/mL; MIC [20]: 6.25 µg/mL; antibacterial activity in vivo (in words) [24]: almost comparable
CC1(C)S[C@@H]2[C@H](NC(=O)[C@H](N)c3ccc(O)cc3)C(=O)N2[C@H]1C(=O)O [Compound M, D-α-Amino-p-hydroxybenzylpenicillin sodium salt]					> 200 mg/kg	0.1 µg/mL	200 µg/mL	0.78 µg/mL	25 µg/mL	0.39 µg/mL	200 µg/mL	0.1 µg/mL	> 200 µg/mL	0.025 µg/mL	6.25 µg/mL	6.25 µg/mL	0.39 µg/mL	0.34 mg/kg	3.2 mg/kg	3.4 mg/kg	MIC [3, 27]: 50 µg/mL; MIC [6, 33]: 0.78 µg/mL; MIC ([7]; Serratia, IFO3736, read-out: minimum inhibitory concentration (MIC)): 50 µg/mL; MIC [8, 29]: > 200 µg/mL; MIC [9, 30]: > 200 µg/mL; MIC [11, 36]: 6.25 µg/mL; MIC [19, 32]: 1.56 µg/mL; MIC ([20]; Proteus morganii Kono): 200 µg/mL; antibacterial activity (in words) ([26]; Ampicillin-resistant strains): does not exhibit antibacterial activity; antibacterial activity (in words) ([26]; E. coli P-140a, Klebsiella pneumonia, Enterobacter cloacae, Pseudomonas aeruginosa, Serratia marcescens): substantially ineffective; antibacterial activity (in words) ([26]; bacteria of the genus Pseudomonas): substantially ineffective
